{"source": "patent US7304168B2", "about": "“Photo-caged fluorescent molecules” (Board of Regents, University of Texas System, priority 2003, dated 2007)", "key": {"[1]": {"details": "740 nm, 345 mW laser power exiting the cuvette; cited from earlier work"}, "[2]": {"assay": "Two photon uncaging action cross section at 740 nm with Bhc-OAc as reference", "assay_type": "physicochemical", "details": "for photolysis after 20 minutes of continuous illumination: 345 mW exiting the cuvette; for sensitivity to two photon uncaging relative to 2a: average power 590 mW exiting the cuvette", "method": "To calculate δu, 6-bromo-7-hydroxycoumarin-4-ylmethyl acetate (Bhc-OAc) was used as a reference compound (Furuta, 1999; Fedoryak, 2002). The compounds tested included Compound 2a from FIG. 3 and a compound 2a′ having the structure:\nBhc-OAc, Compound 2a, and Compound 2a′ in microcuvettes were illuminated using focused infrared light ([…]) from a femtosecond-pulsed and mode locked Ti-sapphire laser. The two photon uncaging action cross section was determined using the equation (Furuta, 1999):\n[formula] • where Np is the number of product molecules formed per unit time, <I0^2(t)> is the mean squared light intensity, S(r) is a unitless spatial distribution function, and the integral is over the volume of the microcuvet, and Cs is the substrate concentration. If caged compounds are photolyzed under the identical setting with the same two photon laser power, then the term <I0^2(t)>∫S^2(r)dV should be about the same for different cages. Thus, δu^a of cage “a” can be determined by comparing its rate of product formation (Np^a) with that of reference cage “b” with known δu^b according to the equation: […]\nThe formation of coumarins after two photon photolysis of Compound 2a and […] was quantified similarly as in the one photon uncaging experiments by measuring the fluorescence enhancement. The photolysis of Bhc-OAc was quantified by HPLC analysis as described (Furuta, 1999; Fedoryak, 2002).\nTwo photon photolysis was carried out using a procedure similar to the one first described by Furuta et al (Furuta, 1999). Samples in 100 mM Mops buffer (pH 7.3) were transferred to a microcuvette (Hellma 105.251-QS). The filling volume of the cuvette was […]. The laser beam from a fs-pulsed and mode-locked Ti-Sapphire laser (Mira 900-F pumped by a Verdi, Coherent, Santa Clara, Calif.) was focused into the center of the cuvette with a focusing lens (01 LPX 029/077, focal length 25 mm, Melles-Griot, Carlsbad, Calif.). After irradiation with 740 nm light, samples were collected and the formation of the products was quantified. The formation of coumarins from caged precursors 2a or 2a′ (initial concentration 10 μM) was measured by fluorescence spectroscopy. The photolysis of Bhc-OAc (initial concentration 100 μM) was followed by HPLC. Two-photon uncaging cross sections (δu) were calculated from equation (2) and the reported δu of 0.72 GM for Bhc-OAc at 345 mW laser power exiting the cuvette (Fedoryak, 2002)."}, "[3]": {"details": "at 730 nm; cited from earlier work"}, "[4]": {"system": "human fibroblasts", "details": "human fibroblasts loaded with Fluo-3/AM", "excerpt": "Human fibroblasts were loaded with the calcium indicator Fluo-3/AM (Molecular Probes), and a caged and cell permeable coumarin derivative (compound 8, FIG. 6). […] Optical filters were used (coumarin excitation, 440AF21 (Omega Optical); Fluo-3 excitation, 490/20; UV uncaging 330WB80; dichroic, 61010bs; emission filter, 84101 special; all of Chroma Technology unless stated otherwise).\nFluo-3 measures cell calcium concentrations."}, "[5]": {"system": "gap junction transfers in coupled human fibroblast cells", "assay": "Inhibition of junctional coumarin (HCCC2) transfer after localized uncaging", "assay_type": "cell-based", "details": "human fibroblasts loaded with NPE-HCCC2-AM (1 μM); added prior to the third uncaging", "method": "Coupled human fibroblast cells were loaded with NPE-HCCC2-AM (1 μM) for 40 minutes in Hanks Balanced Saline (HBS with 10 mM Hepes, 5.5 mM glucose, pH 7.3), then washed and incubated for another 15 minutes before imaging on an inverted fluorescence microscope. The time course of fluorescent intensities of HCCC2 after it was locally uncaged in the “donor” cells is shown in FIG. 10 (FHCCC2, arbitrary units, 425±5 nm excitation, 460±10 nm emission). A field diaphragm was placed in the excitation light path inside the microscope. The iris of the field diaphragm was reduced to a minimum to limit the area of UV illumination (360±20 nm) to a fraction of a cell during localized uncagings. Digital fluorescence images were taken every 15 seconds. The rates of HCCC2 diffusion are indicated under each episode of transfer. α-Glycyrrhetinic (“αG”) was added to the cells prior to the third uncaging. αG is a classical inhibitor of gap junction transfers (Rozental, et al., 2001)."}}}
{"smiles": "CC(=O)OCc1cc(=O)oc2cc(O)c(Br)cc12", "note": "[Bhc-OAc, 6-bromo-7-hydroxycoumarin-4-ylmethyl acetate]", "values": [{"measurement": "reported δu, two photon uncaging cross section", "setting": "[1]", "result": 0.72, "unit": "GM"}, {"measurement": "photolysis after 20 minutes of continuous illumination", "setting": "[2]", "result": 10.6, "unit": "%"}, {"measurement": "sensitivity to two photon uncaging relative to 2a", "setting": "[2]", "result": "about two times more sensitive to two photon uncaging than 2a"}]}
{"smiles": "COC(=O)CC[C@@H](NC(=O)c1cc2ccc(OC(C)c3ccccc3[N+](=O)[O-])cc2oc1=O)C(=O)OC", "note": "(stereo partly drawn) [Compound 2a′]", "values": [{"measurement": "photolysis after 20 minutes of continuous illumination", "setting": "[2]", "result": 10, "unit": "%"}, {"measurement": "sensitivity to two photon uncaging relative to 2a", "setting": "[2]", "result": "about two times more sensitive to two photon uncaging than 2a"}, {"measurement": "δu, two photon uncaging action cross section", "setting": "[2]; estimated against Bhc-OAc (0.72 GM)", "result": 0.68, "unit": "GM"}]}
{"smiles": "COc1ccc([N+](=O)[O-])c2c1CCN2C(=O)CC[C@H](N)C(=O)O", "note": "[MNI caged glutamate]", "values": [{"measurement": "δu, two photon uncaging cross section", "setting": "[3]", "result": 0.06, "unit": "GM"}]}
{"smiles": "NCCc1c[nH]cn1", "note": "[histamine]", "values": [{"measurement": "intracellular calcium (Fluo-3 channel)", "setting": "[4]", "result": "induced intracellular calcium increase"}]}
{"smiles": "CC1(C)[C@@H](O)CC[C@]2(C)[C@H]3C(=O)C=C4[C@H]5C[C@@](C)(C(=O)O)CC[C@]5(C)CC[C@@]4(C)[C@]3(C)CC[C@@H]12", "note": "[αG, α-glycyrrhetinic acid]", "values": [{"measurement": "inhibition of coumarin transfer through gap junctions", "setting": "[5]", "result": "susceptible to inhibition by αG"}]}
